These are literature values, as cited in paper PMC11270681, “Synthesis and Systematic Investigation of Lepidiline A and Its Gold(I), Silver(I), and Copper(I) Complexes Using In Vitro Cancer Models and Multipotent Stem Cells” (ACS Omega, 2024).

Usually IC50 stands for the point on the concentration scale where inhibition reaches its midpoint.

For one data set, the system named is HL-60 leukemia line. On the set-up: method as in PMID 34808062. Particulars: cited from earlier work.
For the next data set, the system named is MCF-7 breast cancer line. Also on record: method as in PMID 34808062. Particulars: cited from earlier work.

`COc1cccc(C[n+]2cn(Cc3ccccc3)c(C)c2C)c1` [lepidiline C]: the IC50 was ~30 µM with HL-60 leukemia line and 75 µM in the data set with MCF-7 breast cancer line.
